The target of one assay is T1, human CRHR1 (Homo sapiens, UniProt P34998).
T1 construct: expressed in transfected cells
T1 sequence (P34998 24-415): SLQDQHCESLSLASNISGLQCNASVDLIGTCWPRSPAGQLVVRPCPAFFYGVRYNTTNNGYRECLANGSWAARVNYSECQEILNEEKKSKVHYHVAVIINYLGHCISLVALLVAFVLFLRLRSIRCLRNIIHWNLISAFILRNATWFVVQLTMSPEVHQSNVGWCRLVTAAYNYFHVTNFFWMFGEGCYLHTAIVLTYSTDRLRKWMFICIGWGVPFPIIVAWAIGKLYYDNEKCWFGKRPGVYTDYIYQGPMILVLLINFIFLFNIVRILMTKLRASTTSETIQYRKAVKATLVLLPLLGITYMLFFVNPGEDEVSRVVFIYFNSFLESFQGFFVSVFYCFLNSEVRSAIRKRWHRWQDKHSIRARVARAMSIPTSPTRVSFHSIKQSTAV
Briefly: Human CRHR1 cAMP assay (HTRF) in HEK293 cells stably expressing human CRHR1. In kind it is cell-based. The conditions noted are these: HEK293 cells overexpressing human CRHR1; relative EC50, maximum 66 nM human UCN1; mean ± SE; read-out: hCRHR1 cAMP EC50 (pM, ± SE). As to the method:
(§1) The corticotropin-releasing hormone (CRH) receptor 1 and 2 (CRHR1 and CRHR2) are GPCRs that were functionally coupled to Gs proteins. Stimulation of these receptors results in an increased production of intracellular cAMP, which can be detected using standard in vitro technologies. In vitro activity of peptides was measured by the amount of cAMP formed in human CRHR1 and CRHR2 overexpressed cells.
(§2) Human CRHR1 and CRHR2 receptors were stably expressed in human embryonic kidney cells (HEK293) under control of a pcDNA expression vector. The HEK293 cell line was cultured in DMEM 1× (Gibco, 93-0152DK) supplemented with 10% FBS, 1 mM sodium pyruvate, 1×MEM NEAA, 1× GlutaMAX and 10 mM HEPES. The plasmids of human CRHR1-pQCXIP (T7364) and human CRHR2b-R2683puro (T16761) DNA were transfected into HEK293 cells using Lipo fectAMINE 3000 Transfection reagent (Invitrogen, L3000001). After 20 days under selection, the mRNA levels from different clones were measured to confirm the expression of human CRHR1 and CRHR2 genes. To determine the function of over-expressed CRHR cells, the intracellular cAMP levels in response to human UCN1 and UCN2 were measured and compared to the expression of CRHR1 and CRHR2 mRNA in each clone.
(§3) Human CRHR1 cells were cultured in DMEM 1× (Gibco, 93-0152DK) supplemented with 10% FBS, 1 mM sodium pyruvate, 1×MEM NEAA, 1×GlutaMAX, 10 mM HEPES, and 800 μg/ml G418. Human CRHR2 cells were cultured at the same media (DMEM 1×, 10% FBS, 1 mM sodium pyruvate, 1×MEM NEAA, 1×GlutaMAX, 10 mM HEPES) in the presence of 0.5 ug/mL puromycin. Cultured cells were grown to 90% confluency and harvested. The cells were frozen at 10×10e6/ml in a mixture of […] fetal bovine serum plus 7% DMSO and stored in liquid nitrogen until use.
(§4) On the day of the assay, the frozen cells were thawed and diluted in assay buffer (Phenol Red free MEM (Corning, 17-305-CV, lot #32121010), 0.1% Casein (Sigma C4765, lot #SLCG2120), 5 mM HEPES pH 7.4 containing 0.25 mM IBMX). 10 ul of human CRHR1 cells (25,000 cells) or 10 μL of human CRHR2 cells (5,000 cells) were dispensed into each well of white poly-D-lysine coated 384-well plates (Corning cat #354661). Test compounds diluted in DMSO were added (200 nL/well) in a 1:3 dilution series using ECHO acoustic liquid handler (Beckman). The mixture of cells and test compounds were incubated at 37° C. for 1 hour for the hCRHR1 plate, while the CRHR2 plates were incubated at room temperature for 30 min.
(§5) The amount of intracellular cAMP was quantitated using HTRF technology (Homogeneous Time Resolved Fluorescence; Cisbio) as per vendor instructions. Briefly, 10 uL CAMP-d2 conjugate and 10 uL anti-CAMP-cryptate conjugate in lysis buffer were incubated with the treated cells at room temperature for 60 min. The HTRF signal was immediately detected using an Envision plate reader (Perkin-Elmer) to calculate the ratio of fluorescence at 665 to 620 nm.
(§6) Raw fluorescence data for concentration curves of the peptides in Table 2 and Table 3 were converted to cAMP amount (pmol/well) using a cAMP standard curve generated for each experiment.
A general note: Changes in cAMP serve as a functional read-out for many G protein-coupled receptors.

In another assay the target is T2, human CRHR2 (Homo sapiens, UniProt Q13324).
T2 construct: expressed in transfected cells
T2 sequence (Q13324 1-438 isoform Q13324-2): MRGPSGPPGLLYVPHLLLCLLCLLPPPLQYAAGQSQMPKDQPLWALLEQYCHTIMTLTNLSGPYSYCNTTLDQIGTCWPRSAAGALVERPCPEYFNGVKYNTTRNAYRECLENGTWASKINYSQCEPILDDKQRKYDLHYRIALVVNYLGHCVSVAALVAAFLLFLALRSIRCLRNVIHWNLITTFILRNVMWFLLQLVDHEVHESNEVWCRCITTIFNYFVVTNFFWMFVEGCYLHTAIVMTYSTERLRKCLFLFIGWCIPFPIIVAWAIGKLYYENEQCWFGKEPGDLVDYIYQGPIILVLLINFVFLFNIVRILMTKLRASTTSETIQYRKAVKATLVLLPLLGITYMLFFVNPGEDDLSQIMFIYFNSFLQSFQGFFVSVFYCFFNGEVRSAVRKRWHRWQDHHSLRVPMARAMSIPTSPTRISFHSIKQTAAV
Nature of the assay: Human CRHR2 cAMP assay (HTRF) in HEK293 cells stably expressing human CRHR2. In kind it is cell-based. The conditions noted are these: HEK293 cells overexpressing human CRHR2; relative EC50, maximum 10 nM human UCN2; mean ± SE; read-out: hCRHR2 cAMP EC50 (pM, ± SE). As for the experimental part:
as §1, §2, §3, §4, §5, §6

*1 amine or outer side, *2 acyl side, *3 side chain or, on linkers, in order; H or OH if unused. Where a SMILES comes first, the peptide text is derived from it. Side-chain parts run from the residue outwards. [ ]: non-standard residue; d: D form. The star is where a group is joined. C20 diacid = O=C(O)CCCCCCCCCCCCCCCCCCC(=O)*; γGlu = O=C(O)[C@H](CCC(=O)[*:2])N[*:1]; εLys = N[C@@H](CCCCN[*:1])C(=O)[*:2]; αMeL = CC(C)C[C@](C)(N)C(=O)O; AEEA = NCCOCCOCC(=O)O Some results are limits rather than exact numbers.

By EC50 is commonly meant the concentration giving half of the maximal effect. Consider `CC[C@H](C)[C@H](NC(C)=O)C(=O)N[C@H](C(=O)N[C@H](C(=O)N[C@@H](CO)C(=O)N[C@@](C)(CC(C)C)C(=O)N[C@@H](CC(=O)O)C(=O)N[C@@H](C(=O)N1CCC[C@H]1C(=O)N[C@H](C(=O)NCC(=O)N[C@@](C)(CC(C)C)C(=O)N[C@@H](CC(C)C)C(=O)N[C@@H](CCC(N)=O)C(=O)N[C@H](C(=O)N[C@@H](CCCCN)C(=O)N[C@@H](CC(C)C)C(=O)N[C@@H](CCC(=O)O)C(=O)N[C@@H](CCC(N)=O)C(=O)N[C@@H](CCC(=O)O)C(=O)N[C@@H](CCCNC(=N)N)C(=O)N[C@@H](C)C(=O)N[C@@H](CCC(=O)O)C(=O)N[C@@H](CCCCN)C(=O)N[C@@H](C)C(=O)N[C@@H](CCCNC(=N)N)C(=O)N[C@@H](CCC(N)=O)C(=O)N[C@@H](CCC(N)=O)C(=O)N[C@@H](C)C(=O)N[C@@H](CCCCNC(=O)CC[C@H](NC(=O)COCCOCCNC(=O)CC[C@H](NC(=O)CCCCCCCCCCCCCCCCCCC(=O)O)C(=O)O)C(=O)O)C(=O)N[C@@H](CCC(=O)O)C(=O)N[C@@H](CC(N)=O)C(=O)N[C@H](C(=O)N[C@@H](CCC(=O)O)C(=O)N[C@H](C(=O)N[C@@H](CC(C)C)C(=O)N[C@@H](C)C(=O)N[C@@H](CCC(N)=O)C(=O)N[C@H](C(N)=O)C(C)C)[C@@H](C)CC)[C@@H](C)O)[C@@H](C)CC)[C@@H](C)O)C(C)C)[C@@H](C)O)C(C)C` [SEQ ID NO: 30, Ac-IVTS αMeL D (D-Val) PTG αMeL LQIKLEQERAEKARQQAK(γE-(2-[2-(2-Amino-ethoxy)-ethoxy]-acetyl)-γE-CO-(CH2)18-CO2H)ENTEILAQV-NH2] (Ac-IVTS[αMeL]D[dV]PTG[αMeL]LQIKLEQERAEKARQQAK([γGlu-AEEA-γGlu-C20 diacid])ENTEILAQV-NH2), for which the concentration giving a half-maximal response (EC50) is greater than 1e+07 pM on human CRHR1 and 5.7 ± 0.1 pM on human CRHR2.

As to `CC[C@H](C)[C@H](NC(C)=O)C(=O)N[C@H](C(=O)N[C@H](C(=O)N[C@@H](CO)C(=O)N[C@@](C)(CC(C)C)C(=O)N[C@@H](CC(=O)O)C(=O)N[C@@H](C(=O)N1CCC[C@H]1C(=O)N[C@H](C(=O)NCC(=O)N[C@@](C)(CC(C)C)C(=O)N[C@@H](CC(C)C)C(=O)N[C@@H](CCC(N)=O)C(=O)N[C@H](C(=O)N[C@@H](CCCCN)C(=O)N[C@@H](CC(C)C)C(=O)N[C@@H](CCC(=O)O)C(=O)N[C@@H](CCC(N)=O)C(=O)N[C@@H](CCC(=O)O)C(=O)N[C@@H](CCCNC(=N)N)C(=O)N[C@@H](C)C(=O)N[C@@H](CCC(=O)O)C(=O)N[C@@H](CCCCN)C(=O)N[C@@H](C)C(=O)N[C@@H](CCCNC(=N)N)C(=O)N[C@@H](CCC(N)=O)C(=O)N[C@@H](CCC(N)=O)C(=O)N[C@@H](C)C(=O)N[C@@H](CCCCNC(=O)CC[C@H](NC(=O)CC[C@H](NC(=O)COCCOCCNC(=O)CCCCCCCCCCCCCCCCCCC(=O)O)C(=O)O)C(=O)O)C(=O)N[C@@H](CCC(=O)O)C(=O)N[C@@H](CC(N)=O)C(=O)N[C@H](C(=O)N[C@@H](CCC(=O)O)C(=O)N[C@H](C(=O)N[C@@H](CC(C)C)C(=O)N[C@@H](C)C(=O)N[C@@H](CCC(N)=O)C(=O)N[C@H](C(N)=O)C(C)C)[C@@H](C)CC)[C@@H](C)O)[C@@H](C)CC)[C@@H](C)O)C(C)C)[C@@H](C)O)C(C)C` [SEQ ID NO: 31, Ac-IVTS αMeL D (D-Val) PTG αMeL LQIKLEQERAEKARQQAK((γE)2-(2-[2-(2-Amino-ethoxy)-ethoxy]-acetyl)-CO-(CH2)18-CO2H)ENTEILAQV-NH2] (Ac-IVTS[αMeL]D[dV]PTG[αMeL]LQIKLEQERAEKARQQAK([γGlu-γGlu-AEEA-C20 diacid])ENTEILAQV-NH2), the 50% effective concentration (EC50) on human CRHR1 is greater than 1e+07 pM; at human CRHR2, 4.5 ± 0.7 pM.

In the case of `CC[C@H](C)[C@H](NC(C)=O)C(=O)N[C@H](C(=O)N[C@H](C(=O)N[C@@H](CO)C(=O)N[C@@](C)(CC(C)C)C(=O)N[C@@H](CC(=O)O)C(=O)N[C@@H](C(=O)N1CCC[C@H]1C(=O)N[C@H](C(=O)NCC(=O)N[C@@](C)(CC(C)C)C(=O)N[C@@H](CC(C)C)C(=O)N[C@@H](CCC(N)=O)C(=O)N[C@H](C(=O)N[C@@H](CCCCN)C(=O)N[C@@H](CC(C)C)C(=O)N[C@@H](CCC(=O)O)C(=O)N[C@@H](CCC(N)=O)C(=O)N[C@@H](CCC(=O)O)C(=O)N[C@@H](CCCNC(=N)N)C(=O)N[C@@H](C)C(=O)N[C@@H](CCC(=O)O)C(=O)N[C@@H](CCCCN)C(=O)N[C@@H](C)C(=O)N[C@@H](CCCNC(=N)N)C(=O)N[C@@H](CCC(N)=O)C(=O)N[C@@H](CCC(N)=O)C(=O)N[C@@H](C)C(=O)N[C@@H](CCCCNC(=O)COCCOCCNC(=O)[C@@H](N)CCCCNC(=O)CC[C@H](NC(=O)CCCCCCCCCCCCCCCCCCC(=O)O)C(=O)O)C(=O)N[C@@H](CCC(=O)O)C(=O)N[C@@H](CC(N)=O)C(=O)N[C@H](C(=O)N[C@@H](CCC(=O)O)C(=O)N[C@H](C(=O)N[C@@H](CC(C)C)C(=O)N[C@@H](C)C(=O)N[C@@H](CCC(N)=O)C(=O)N[C@H](C(N)=O)C(C)C)[C@@H](C)CC)[C@@H](C)O)[C@@H](C)CC)[C@@H](C)O)C(C)C)[C@@H](C)O)C(C)C` [SEQ ID NO: 32, Ac-IVTS αMeL D (D-Val) PTG αMeL LQIKLEQERAEKARQQAK((2-[2-(2-Amino-ethoxy)-ethoxy]-acetyl)-ϵK-γE-CO-(CH2)18-CO2H)ENTEILAQV-NH2] (Ac-IVTS[αMeL]D[dV]PTG[αMeL]LQIKLEQERAEKARQQAK([AEEA-εLys-γGlu-C20 diacid])ENTEILAQV-NH2), the EC50 at human CRHR1 is greater than 1e+07 pM; at human CRHR2, 5.4 ± 0.7 pM.

Source of the values: US20250163119A1, “COMPOUNDS FOR THE TREATMENT OF DIABETES OR OBESITY” (Eli Lilly and Company, priority 2023, published 2025).
